The values below come from publication PMC12707362, “Targeting Aurora Kinases as Essential Cell‐Cycle Regulators to Deliver Multi‐Stage Antimalarials Against Plasmodium Falciparum” (Angewandte Chemie (International Ed. in English), 2025).

Data set [1] relates to immature (stage II/III) gametocytes, P. falciparum 3D7elo1-pfs16-CBG99. In words: Luciferase reporter assay, immature gametocytes. The format is cell-based, Plasmodium falciparum. Particulars: 48 h; for inhibition at 5 µM: Plasmodium falciparum, read-out: Pf Early stage gametocyte %inhibition @ 5 µM. On the procedure:
(§1) P. falciparum drug sensitive NF54 (PfNF54) and drug-resistant Dd2 (PfDd2, chloroquine, pyrimethamine and mefloquine resistant) strains were cultured in vitro in human O^+/A^+ erythrocytes (5% hematocrit) in complete medium at 2–5% parasitemia, 37 °C, shaking at 60 rpm under hypoxic conditions (90% N2, 5% O2 and 5% CO2). Immature and mature gametocytes were produced from P. falciparum 3D7elo1-pfs16-CBG99 (kind gift from Pietro Alano, ISS, Italy) ^[1] as described^[2,3] by simultaneously applying nutrient starvation and decreasing hematocrit to induce >97% ring-stage ABS parasites (0.5% parasitemia, 6% hematocrit). Gametocytogenesis was followed with daily media changes (including glucose) and ABS parasites removed with 50 mM N-acetylglucosamine (day 1–4 for stage II/III; days 3–7 for stage IV/V).
(§2) All inhibitors were dissolved in dimethyl sulfoxide (DMSO). Antiplasmodium activity of selected anti-cancer inhibitors was determined on P. falciparum NF54 and Dd2 strains, measuring SYBR Green I fluorescence (485 nm excitation, 538 nm emission) as an indicator of proliferation^[4]. Ring-stage ABS parasites (1% parasitemia, 1% hematocrit) were treated with compounds for 96 h at 37 °C with chloroquine disulphate (0.5 μM) as positive drug control. The activity of the inhibitors was tested against immature (>95% stage II/III) and late-stage (>90% stage IV/V) gametocytes using a luciferase reporter assay on 3D7elo1-pfs16-CBG99 ^[1]. […] Luciferase activity was determined using a non-lysing D-luciferin substrate (1 mM in 0.1 M citrate buffer, pH 5.5, 100 μL) and bioluminescence was detected with a GloMax® - Multi Detection System with Instinct® software.

Data set [2] in a line: Cytotoxicity counter-screening (MTT), HepG2. Particulars: human, HepG2 CC50, 48 h, MTT. On the procedure:
(§3) HepG2 and CHO cells were maintained at 37 °C, under a humidified atmosphere of 5% CO2, in DMEM high glucose media (Gibco) supplemented with 10% heat-inactivated FBS and 1% (v/v) Penicillin-Streptomycin antibiotics. […] The supernatant was discarded, and the cell pellet was resuspended in 1 mL DMEM media for cell counting by Trypan Blue. To determine the toxicity, cells were resuspended and seeded at a concentration of 1x10^4 cells/well in a 96-well plate and incubated for 24 h^[9,10]. Cells were treated in duplicate with a 10-fold serial dilution starting at 100 ug/mL of inhibitor in new media. After 48 h incubation, the viable cells were measured using the MTT tetrazolium reduction assay, where sterile 25 µL of a 5 mg/mL MTT was added to each well and incubated for 4 h before the […] formazan crystals were dissolved with 100 µL DMSO (Merck) per well. The absorbance, a measure of intracellular reduction of MTT, was measured at 540 nm (Multiskan GO). Emetine (50 µM) was included as a positive drug control, and the background was subtracted from all data before being normalised to the untreated^[9,10].

Data set [3] can be described thus: Cytotoxicity counter-screening (MTT), CHO. Particulars: Chinese hamster. The procedure:
as §3

Data set [4] addresses recombinant PvPI4Kβ (Plasmodium vivax, UniProt A5KB26). The data set is described as follows: ADP-Glo kinase assay, PvPI4Kβ. The format is biochemical. The source says: (§4) Full-length PfPKG (PF3D7_1436600)^[19] and PvPI4Kβ (PVX_098050)^[20] recombinant proteins were expressed in E. coli and baculovirus-insect cell expression systems. The kinase domain of PfCLK3 (PF3D7_1114700, Gln317 to Ser694) was expressed in E. coli Rosetta™(DE3)pLysS cells (kind gift from Rafael M. Couñago, CQMED, University of Campinas). Briefly, the N-terminal His-tagged kinases were purified using immobilized metal affinity chromatography, followed by anion exchange chromatography in the case of PfPKG, and size exclusion chromatography. Dose-response kinase inhibition assays were carried out using the ADP-Glo kinase assay kit^[21], with 1 nM PfPKG, 10 μM ATP, 20 μM […]-NH2, 1% (v/v) DMSO and inhibitor in PKG assay buffer (25 mM HEPES pH 7.4, 0.1 mg/mL BSA, 0.01% (v/v) Triton-X 100, 20 mM MgCl2, 2 mM DTT, 10 μM cGMP); or 6 nM PvPI4Kβ, 10 μM ATP, 0.1 mg/ml L-alpha-phosphatidylinositol, 1% (v/v) DMSO and inhibitor in PI4Kβ assay buffer (25 mM HEPES pH 7.4, 100 mM NaCl, 3 mM MgCl2, 1 mM DTT, 0.025 mg/ml BSA, 0.2% (v/v) Triton-X-100); or 15 nM PfCLK3, 10 μM ATP, 20 μM myelin basic protein, 1% (v/v) DMSO and inhibitor in assay buffer (50 mM HEPES pH 7.4, 0.1 mg/mL BSA, 0.01% (v/v) Triton-X 100, 20 mM MgCl2, 2 mM DTT). […] Mean IC50 values were calculated from two independent experiments, each with technical duplicates.
Background: ADP-Glo first removes unused ATP, then detects ADP through luciferase.

In data set [5] the test system is late-stage (stage IV/V) gametocytes, P. falciparum 3D7elo1-pfs16-CBG99. The data set is described as follows: Luciferase reporter assay, late-stage gametocytes. The format is cell-based. Particulars: Plasmodium falciparum, 48 h, read-out: Pf Late stage gametocyte %inhibition @ 5 µM. The procedure: as §1, §2
On the technique in general: Reporter assays use an easily measured gene product as a stand-in for the process of interest.

The subject of data set [6] is multidrug-resistant PfDd2 ABS parasites. In words: SYBR Green I proliferation assay, PfDd2 asexual blood stages. The format is cell-based. Particulars: Plasmodium falciparum, DD2, read-out: Pf Dd2 ABS IC50. On the procedure:
(B) Antiplasmodial activity of nine anticancer aurora kinase inhibitors (selected based on their PfNF54 ABS activity) against P. falciparum multidrug-resistant ABS parasites (PfDd2 and PfK1). (C) Kinobead competitive inhibition data.
as §1, §2

For data set [7], the target named is T1, recombinant PfPKG (Plasmodium falciparum, UniProt Q8I719).
T1 construct: Full-length PfPKG (PF3D7_1436600); His tag (N); made in house; host or cells: E. coli (first-named host, read as 'respectively')
T1 sequence (Q8I719 whole entry): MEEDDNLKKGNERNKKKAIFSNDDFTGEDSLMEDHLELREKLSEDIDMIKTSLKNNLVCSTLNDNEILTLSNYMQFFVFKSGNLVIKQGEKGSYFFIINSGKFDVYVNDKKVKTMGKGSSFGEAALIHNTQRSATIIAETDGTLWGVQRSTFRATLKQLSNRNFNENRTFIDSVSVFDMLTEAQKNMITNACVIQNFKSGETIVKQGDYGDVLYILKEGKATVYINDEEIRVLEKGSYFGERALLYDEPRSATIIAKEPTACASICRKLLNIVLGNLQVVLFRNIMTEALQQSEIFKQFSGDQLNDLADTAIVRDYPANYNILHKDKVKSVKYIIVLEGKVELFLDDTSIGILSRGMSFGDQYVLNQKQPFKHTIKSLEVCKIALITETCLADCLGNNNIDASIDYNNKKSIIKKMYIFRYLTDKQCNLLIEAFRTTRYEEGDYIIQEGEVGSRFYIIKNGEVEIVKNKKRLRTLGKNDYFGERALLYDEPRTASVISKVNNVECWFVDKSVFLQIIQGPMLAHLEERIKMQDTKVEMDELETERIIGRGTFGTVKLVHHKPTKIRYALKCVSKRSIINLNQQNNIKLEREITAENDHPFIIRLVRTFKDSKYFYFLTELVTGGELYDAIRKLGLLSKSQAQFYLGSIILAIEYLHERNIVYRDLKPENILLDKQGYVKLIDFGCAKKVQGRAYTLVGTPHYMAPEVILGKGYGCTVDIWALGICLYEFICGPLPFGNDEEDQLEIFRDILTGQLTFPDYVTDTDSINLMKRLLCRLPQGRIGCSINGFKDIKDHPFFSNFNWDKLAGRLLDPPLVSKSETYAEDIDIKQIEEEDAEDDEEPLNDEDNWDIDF
The data set is described as follows: ADP-Glo kinase assay, PfPKG. The format is biochemical.
Excerpt: as §4

Setting [8] is: 10 µM ATP, read-out: IC50 PvPI4Kβ.

Like-named read-outs stand apart in the source and are kept apart here. Some results are limits rather than exact numbers.

Sequence of recombinant PvPI4Kβ (A5KB26 1-1525): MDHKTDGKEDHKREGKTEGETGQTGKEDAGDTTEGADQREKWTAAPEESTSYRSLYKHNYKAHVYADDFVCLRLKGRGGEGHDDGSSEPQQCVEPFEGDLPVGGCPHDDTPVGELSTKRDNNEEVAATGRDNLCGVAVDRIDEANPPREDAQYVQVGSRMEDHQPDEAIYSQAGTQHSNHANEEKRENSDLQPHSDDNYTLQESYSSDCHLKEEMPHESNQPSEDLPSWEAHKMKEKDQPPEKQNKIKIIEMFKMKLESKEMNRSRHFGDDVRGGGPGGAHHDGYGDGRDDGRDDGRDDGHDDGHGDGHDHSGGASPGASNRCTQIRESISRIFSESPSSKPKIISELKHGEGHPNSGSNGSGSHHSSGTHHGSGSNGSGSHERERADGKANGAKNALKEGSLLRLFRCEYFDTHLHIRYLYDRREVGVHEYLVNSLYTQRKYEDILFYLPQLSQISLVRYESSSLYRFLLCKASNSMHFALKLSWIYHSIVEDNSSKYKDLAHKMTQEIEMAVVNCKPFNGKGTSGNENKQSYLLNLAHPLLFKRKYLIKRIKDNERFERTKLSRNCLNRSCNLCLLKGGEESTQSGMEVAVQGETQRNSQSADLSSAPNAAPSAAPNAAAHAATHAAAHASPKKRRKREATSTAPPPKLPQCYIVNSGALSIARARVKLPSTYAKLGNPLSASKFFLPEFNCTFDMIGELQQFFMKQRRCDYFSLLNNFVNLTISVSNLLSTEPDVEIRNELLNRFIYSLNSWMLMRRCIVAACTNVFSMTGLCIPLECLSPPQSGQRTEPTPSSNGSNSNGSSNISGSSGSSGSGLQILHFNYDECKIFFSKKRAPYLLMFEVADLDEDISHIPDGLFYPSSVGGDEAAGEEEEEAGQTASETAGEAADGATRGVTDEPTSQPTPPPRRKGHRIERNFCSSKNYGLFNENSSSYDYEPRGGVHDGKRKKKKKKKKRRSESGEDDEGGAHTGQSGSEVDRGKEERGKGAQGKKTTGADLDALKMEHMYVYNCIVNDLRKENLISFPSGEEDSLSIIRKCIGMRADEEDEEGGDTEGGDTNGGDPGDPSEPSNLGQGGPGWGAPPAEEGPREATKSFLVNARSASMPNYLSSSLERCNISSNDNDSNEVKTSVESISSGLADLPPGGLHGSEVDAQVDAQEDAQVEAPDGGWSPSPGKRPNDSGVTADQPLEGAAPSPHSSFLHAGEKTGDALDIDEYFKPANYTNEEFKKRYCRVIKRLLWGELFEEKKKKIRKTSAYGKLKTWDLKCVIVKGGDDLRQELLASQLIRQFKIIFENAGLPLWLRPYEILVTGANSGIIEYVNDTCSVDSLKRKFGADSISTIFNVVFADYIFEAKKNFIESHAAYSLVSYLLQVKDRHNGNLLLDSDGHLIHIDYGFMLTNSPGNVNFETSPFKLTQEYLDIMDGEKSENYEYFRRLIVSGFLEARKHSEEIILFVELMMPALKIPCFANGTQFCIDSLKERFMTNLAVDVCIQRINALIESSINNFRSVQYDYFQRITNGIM

A word on the inhibition: it is the percentage by which the read-out fell short of the control. As a reminder, the CC50 is the concentration giving 50% cytotoxicity. By IC50 is commonly meant the point on the concentration scale where inhibition reaches its midpoint. As for `O=C(Nc1c[nH]nc1-c1nc2ccc(CN3CCOCC3)cc2[nH]1)NC1CC1` [AT83, AT9283], the values for the inhibition at 5 µM in data set [1] and in data set [5] were 53.5% and 48.9%, respectively. Also, the CC50 at 48 h was found to be 12.9 ± 4.5 µM in data set [2] and 4.5 ± 2.1 µM in data set [3]. Further, the IC50 was more than 10 µM in data set [4] (setting [8]), 105 nM in data set [6] and 9300 nM in data set [7].

As to `CCN1CCN(C(=O)Cc2ccc(Nc3ncc(F)c(Nc4ccc(C(=O)Nc5ccccc5Cl)cc4)n3)cc2)CC1` [AAi I, Aurora A Inhibitor I], the “Pf Early stage gametocyte %inhibition @ 5 µM” value in data set [1] was 73,0 ± 3,1%. The inhibition at 5 µM in data set [1] is approximately 70%; in data set [5], 48.7%. In addition, the values for the CC50 at 48 h in data set [2] and in data set [3] were 5.1 µM and 3.6 µM, respectively. Further, the results for the IC50 in data set [4] (setting [8]), in data set [6] and in data set [7] were more than 10 µM, 903 nM and 1700 nM, respectively.

As to `O=C(Nc1cccc(Nc2nccc(Nc3cccc(C(F)(F)F)c3)n2)c1)C1CC1` [Aki III, Aurora kinase inhibitor III], the results for the inhibition at 5 µM in data set [1] and in data set [5] were 27.7% and 3.5%, respectively. For the same compound, the CC50 at 48 h in data set [2] (HepG2 cells) stood at 18.4 µM; in data set [3] (CHO cells), 2.4 µM. Moreover, the IC50 was more than 10 µM in data set [4]; 1600 nM in data set [6]; 2700 nM in data set [7] (10 µM ATP, read-out: IC50 PfPKG).

On to `CCN(CCO)CCCOc1ccc2c(Nc3cc(CC(=O)Nc4cccc(F)c4)n[nH]3)ncnc2c1` [AZD-1152, AZD-1152-HQPA], for which the inhibition at 5 µM in data set [1] worked out at 31.1%; in data set [5] it was 38.2%. For the same compound, the CC50 at 48 h in data set [2] and in data set [3] was more than 15 µM throughout. In addition, the IC50 in data set [4] (setting [8]) was more than 10 µM; in data set [6], 490 nM; in data set [7] it was more than 10000 nM.

For the compound `COc1cc(N2CCC(N3CCN(C)CC3)CC2)ccc1Nc1ncc(Cl)c(Nc2ccccc2S(=O)(=O)C(C)C)n1` [TAE684, NVP-TAE684], the “Pf Early stage gametocyte %inhibition @ 5 µM” value in data set [1] was 65,4 ± 1,7%. In addition, the inhibition at 5 µM in data set [1] is approximately 70%; in data set [5], 50.8%. For the same compound, the CC50 at 48 h in data set [2] is 8.8 µM; in data set [3] it was 2 µM. Moreover, the concentration for half-maximal inhibition (IC50) in data set [4] (setting [8]) is more than 10 µM; in data set [6] it was 227 nM; in data set [7], 2000 nM.

Take `COc1cc2c(Nc3ccc(NC(=O)c4ccccc4)cc3)ncnc2cc1OCCCN1CCOCC1` [ZM-39, ZM-447439]: the inhibition at 5 µM stood at 32.7% in data set [1] and 21.5% in data set [5]. Further, the half-maximal cytotoxic concentration (CC50) at 48 h in data set [2] (HepG2 cells) and in data set [3] (CHO cells) was more than 15 µM throughout. For the same compound, the IC50 was more than 10 µM in data set [4] (setting [8]), 374 nM in data set [6] and more than 10000 nM in data set [7].
